Among the data in ChEMBL document CHEMBL2073889, “ATP-dependent transport of beta-estradiol 17-(beta-D-glucuronide) in rat canalicular membrane vesicles” (Am J Physiol, 1996) are Activity values, retold here.

In the assay the target is Multidrug resistance protein 1a (Rattus norvegicus) (UniProt Q6PSM0). The assay can be described thus: TP_TRANSPORTER: uptake, inhibited by C219 antibody in bile canalicular membrane vesicles from SD rat. The conditions noted are these: Sprague-Dawley, Bile canalicular membrane vesicle. It is filed as functional, cell membranes.
Sequence of Multidrug resistance protein 1a (Rattus norvegicus) (Q6PSM0 as listed by the source): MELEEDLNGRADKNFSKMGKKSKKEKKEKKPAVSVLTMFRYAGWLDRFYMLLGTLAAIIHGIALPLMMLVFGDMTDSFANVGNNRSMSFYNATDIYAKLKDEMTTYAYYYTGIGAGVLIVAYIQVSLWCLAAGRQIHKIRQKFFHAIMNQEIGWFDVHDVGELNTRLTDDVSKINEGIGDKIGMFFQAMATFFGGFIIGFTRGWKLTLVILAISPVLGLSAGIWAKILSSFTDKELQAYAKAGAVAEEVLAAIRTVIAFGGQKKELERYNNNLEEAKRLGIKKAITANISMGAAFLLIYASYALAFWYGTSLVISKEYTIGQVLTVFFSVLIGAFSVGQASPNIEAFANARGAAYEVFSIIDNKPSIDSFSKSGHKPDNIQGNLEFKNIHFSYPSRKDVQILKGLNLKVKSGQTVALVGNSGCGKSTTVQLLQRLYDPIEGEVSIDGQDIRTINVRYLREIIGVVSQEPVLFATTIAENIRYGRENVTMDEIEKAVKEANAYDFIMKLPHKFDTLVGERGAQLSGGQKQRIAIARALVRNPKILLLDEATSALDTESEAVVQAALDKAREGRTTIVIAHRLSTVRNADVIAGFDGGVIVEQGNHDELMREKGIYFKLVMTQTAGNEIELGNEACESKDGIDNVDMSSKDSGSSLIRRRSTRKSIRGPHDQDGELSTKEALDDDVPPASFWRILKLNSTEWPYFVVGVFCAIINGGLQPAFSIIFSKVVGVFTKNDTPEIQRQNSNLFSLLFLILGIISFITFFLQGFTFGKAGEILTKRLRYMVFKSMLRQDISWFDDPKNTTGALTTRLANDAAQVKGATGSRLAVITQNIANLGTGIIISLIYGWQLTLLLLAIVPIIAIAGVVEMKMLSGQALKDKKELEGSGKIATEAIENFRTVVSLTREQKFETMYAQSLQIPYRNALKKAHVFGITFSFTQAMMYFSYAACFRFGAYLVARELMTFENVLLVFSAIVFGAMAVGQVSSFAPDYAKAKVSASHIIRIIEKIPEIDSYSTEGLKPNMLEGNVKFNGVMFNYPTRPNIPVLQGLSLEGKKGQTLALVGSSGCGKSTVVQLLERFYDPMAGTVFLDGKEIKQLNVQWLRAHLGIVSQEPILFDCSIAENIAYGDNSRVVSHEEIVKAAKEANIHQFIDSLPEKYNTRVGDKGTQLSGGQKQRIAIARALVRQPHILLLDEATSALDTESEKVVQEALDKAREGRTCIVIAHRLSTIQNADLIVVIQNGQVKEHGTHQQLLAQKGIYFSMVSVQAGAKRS

As for `C[C@]12CC[C@@H]3c4ccc(O)cc4CC[C@H]3[C@@H]1CC[C@@H]2O[C@@H]1O[C@H](C(=O)O)[C@@H](O)[C@H](O)[C@H]1O`, the Activity result was “substrate [+]”.
